Experimental data published in ChEMBL document CHEMBL2010696, “Discovery, optimisation and in vivo evaluation of novel GPR119 agonists” (Bioorg Med Chem Lett, 2011).
≈ marks a conversion by molar mass, not a printed value. One block for each compound: values may come before it.

Experiments:
physchem [1] = settings: octanol/water
Description: Lipophilicity, log D of the compound

in vivo [2] = settings: mouse, plasma, iv, 2 mg/kg
in vivo [3] = settings: rat, plasma, iv, 2 mg/kg
in vivo [4] = settings: dog, iv, 2 mg/kg
in vivo [5] = settings: mouse, iv, 2 mg/kg
Description: Volume of distribution at steady state in mouse at 2 mg/kg, iv and 5 mg/kg, po

in vivo [6] = settings: rat, iv, 2 mg/kg
Description: Volume of distribution at steady state in rat at 2 mg/kg, iv and 5 mg/kg, po

in vivo [7] = settings: dog, iv, 2 mg/kg; remark: listed apart in the source
Description: Volume of distribution at steady state in dog at 2 mg/kg, iv and 13 mg/kg, po

in vivo [8] = settings: mouse, po, 5 mg/kg
Description: Half life in mouse at 5 mg/kg, po

in vivo [9] = settings: rat, po, 5 mg/kg
Description: Half life in rat at 5 mg/kg, po

in vivo [10] = settings: dog, po, 13 mg/kg
Description: Half life in dog at 13 mg/kg, po

in vivo [11] = settings: mouse, iv, 2 mg/kg; remark: listed apart in the source
Description: Half life in mouse at 2 mg/kg, iv

in vivo [12] = settings: rat, iv, 2 mg/kg; remark: listed apart in the source
Description: Half life in rat at 2 mg/kg, iv

in vivo [13] = settings: dog, iv, 2 mg/kg; remark: listed apart in the source
Description: Half life in dog at 2 mg/kg, iv

in vivo [14] = settings: mouse, po, 5 mg/kg; remark: listed apart in the source
Description: Cmax in mouse at 5 mg/kg, po

in vivo [15] = settings: rat, po, 5 mg/kg; remark: listed apart in the source
Description: Cmax in rat at 5 mg/kg, po

in vivo [16] = settings: dog, po, 13 mg/kg; remark: listed apart in the source
Description: Cmax in dog at 13 mg/kg, po

in vivo [17] = settings: mouse, po, 5 mg/kg; remark: listed apart in the source
Description: Oral bioavailability in mouse at 5 mg/kg

in vivo [18] = settings: rat, po, 5 mg/kg; remark: listed apart in the source
Description: Oral bioavailability in rat at 5 mg/kg

in vivo [19] = settings: dog, po, 13 mg/kg; remark: listed apart in the source
Description: Oral bioavailability in dog at 13 mg/kg

in vitro [20] = settings: mouse, plasma
Description: Fraction unbound in mouse plasma

in vitro [21] = settings: rat, plasma
Description: Fraction unbound in rat plasma

in vitro [22] = settings: dog, plasma
Description: Fraction unbound in dog plasma

in vitro [23] = settings: human, plasma
Description: Fraction unbound in human plasma

physchem [24] = experiment: physchem
Description: Solubility of the compound

in vitro [25] = settings: human, Caco-2
in vitro [26] = settings: dog, MDCK
Description: Apparent permeability across apical to basolateral side in dog MDCK cells at 10 uM

Structure (SMILES): CO[C@H]1CN(Cc2ccc(C(F)(F)F)cc2)CC[C@H]1N(C)C(=O)Cc1ccc(-n2cnnn2)cc1
logD (physchem [1]): 3

Structure (SMILES): CN(C(=O)Cc1ccc(-n2cnnn2)cc1)C1CCN(Cc2ccc(C(F)(F)F)cc2)CC1
clearance (in vivo [2]): 12 mL/min/kg
clearance (in vivo [3]): 6.8 mL/min/kg
clearance (in vivo [4]): 1.3 mL/min/kg
Vd (in vivo [5]): 2 L/kg
Vd (in vivo [6]): 1.4 L/kg
Vd (in vivo [7]): 2.3 L/kg
half-life (in vivo [8]): 2.4 h
half-life (in vivo [9]): 2.8 h
half-life (in vivo [10]): 18 h
half-life (in vivo [11]): 2.2 h
half-life (in vivo [12]): 2.8 h
half-life (in vivo [13]): 20 h
Cmax (in vivo [14]): 2200 nM
Cmax (in vivo [15]): 2400 nM
Cmax (in vivo [16]): 6400 nM
bioavailability (in vivo [17]): 64%
bioavailability (in vivo [18]): 66%
bioavailability (in vivo [19]): 35%
fraction unbound (in vitro [20]): 0.099
fraction unbound (in vitro [21]): 0.081
fraction unbound (in vitro [22]): 0.068
fraction unbound (in vitro [23]): 0.076
solubility (physchem [24]): 18 µM (≈ 8.25 µg/mL)
Papp A→B at 10 µM (in vitro [25]): 57 ×10⁻⁶ cm/s
Papp A→B at 10 µM (in vitro [26]): 17 ×10⁻⁶ cm/s
logD (physchem [1]): 3

Structure (SMILES): CN(C(=O)Cc1ccc(-n2cnnn2)cc1)[C@H]1CCN(Cc2ccc(C(F)(F)F)cc2)C[C@H]1F
logD (physchem [1]): 3.3

Results, then the compound that gave them:

logD (physchem [1]): 3.1
Structure (SMILES): CO[C@@H]1CN(Cc2ccc(C(F)(F)F)cc2)CC[C@@H]1N(C)C(=O)Cc1ccc(-n2cnnn2)cc1

logD (physchem [1]): 2.1
Structure (SMILES): Cc1nc(-c2ccc(CN3CCC(N(C)C(=O)Cc4ccc(-n5cnnn5)cc4)CC3)cc2)no1

logD (physchem [1]): 3.3
Structure (SMILES): CN(C(=O)Cc1ccc(-n2cnnn2)cc1)[C@@H]1CCN(Cc2ccc(C(F)(F)F)cc2)C[C@@H]1F
